Measurements taken from patent US20260070902A1, “SULFONYL DERIVATIVES AS CCR6 INHIBITORS” (Hoffmann-La Roche Inc., priority 2022, published 2026).

Legend:
Format in all cases: cell-based
human CCR6 [1] = target: T1, human CCR6 (Homo sapiens, UniProt P51684); assay: Human CCR6-CRE reporter assay; set-up: The second construct contained the open reading frame of human CCR6 in the pUNO1 backbone; host or cells: 293FT cells; conditions: relative -Log IC50; 293FT cells transfected with human CCR6 and CRE-luciferase reporter; 6 μM Forskolin, 6 nM CCL20; 5 h
T1 sequence (P51684 1-374): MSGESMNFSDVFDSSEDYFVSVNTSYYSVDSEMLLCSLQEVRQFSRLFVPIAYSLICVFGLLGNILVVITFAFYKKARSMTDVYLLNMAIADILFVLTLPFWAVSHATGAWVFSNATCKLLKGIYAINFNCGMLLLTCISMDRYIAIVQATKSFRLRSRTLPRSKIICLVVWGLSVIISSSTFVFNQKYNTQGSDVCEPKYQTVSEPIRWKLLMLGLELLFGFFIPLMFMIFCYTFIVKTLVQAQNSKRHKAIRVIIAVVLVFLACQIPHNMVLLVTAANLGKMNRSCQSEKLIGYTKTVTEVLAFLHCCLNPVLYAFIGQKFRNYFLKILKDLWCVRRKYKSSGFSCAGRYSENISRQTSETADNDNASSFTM
Summary of the method: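 293FT cells transiently co-transfected with human CCR6 and a CRE-luc2P reporter, used 48 h later. Compounds incubated with cells in medium containing 6 μM Forskolin and 6 nM CCL20 (assay-medium levels), 0.1% DMSO final, 5 h at 37° C; luminescence read, relative −Log IC50 from four-parameter fit.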

human CCR6 [2] = target: T1, human CCR6; assay: CHO-K1 CCR6 chemotaxis assay towards CCL20; conditions: relative -Log IC50; CHO-K1 cells overexpressing human CCR6; migration towards 100 ng/ml CCL20; 4 h
Summary of the method: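 Human CCR6-overexpressing CHO-K1 cells (2*10^6 cells/ml) were preincubated 30 min at 37 °C with compound (0.2% DMSO), then allowed to migrate 4 h through 8 µm Transwell pores toward 100 ng/ml CCL20. Migrated cells were counted by CellTiter Glo. −Log IC50 came from four-parameter fits normalised to DMSO without/with CCL20.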

Human CD4+ T cells = assay: CD4+ T cells chemotaxis assay towards CCL20; conditions: Homo sapiens, CD4+ T cell, 3 h, relative -Log IC50, human CD4+ T cells stimulated with anti-CD3 and anti-CD28, migration towards 150 ng/ml CCL20
Source text: CD4+ T Cells Chemotaxis Assay Towards CCL20
Human CD4+ T cells were isolated from buffy coats of healthy donors using a CD4+ T Cell Isolation Kit (Miltenyi Biotec130-096-533). Isolated T cells were stimulated overnight with anti-CD3 and anti-CD28 antibodies (Biolegend 300314/302934) in growth medium (RPMI1640, 10% heat-inactivated FBS, 1× pen/strep (Gibco 15140)). For the chemotaxis assay, Corning Transwell plates were used with a pore size of 5 m (Corning 3388). T cells were counted and diluted to 6*10^6 cells/ml in chemotaxis medium (RPMI1640, 1% BSA, pen/strep). Compounds were four-fold serially diluted in DMSO. Further dilutions were made in chemotaxis medium. Cells were incubated with test compounds for 30 min at 37° C. prior to initiation of the assay (3*10^6 cells/ml). Final DMSO concentration in the assay was 0.2%. Wells of the Transwell plates were filled with 200 μl chemotaxis medium containing 150 ng/ml CCL20 (R&D systems 360-MP). 50 μl of the cell/compound suspension was added to the inserts of the Transwell plates (150,000 cells/insert). The Transwell plates were placed in an incubator at 37° C., 5% CO2 for 3 h. After 3 h, the number of migrated cells was quantified using CellTiter Glo (Promega). Percentage inhibition values were calculated based on the low and high signal obtained with 0.2% DMSO in chemotaxis medium without and with CCL20, respectively. The relative −Log IC50 was determined with GraphPad Prism 9 using a four-parameter dose-response model.

| IC50 (human CCR6 [1]) [nM] | IC50 (human CCR6 [2]) [nM] | IC50 (Human CD4+ T cells) [nM] | SMILES |
| --- | --- | --- | --- |
| 126 | 158 | 50.1 | CC(C)c1nnc2ccc(-c3ccc(S(=N)(=O)[C@H]4CC[C@H](Nc5ccc(S(F)(F)(F)(F)F)cc5)CC4)cc3)cn12 (relative stereo) [Example 102, {4-[3-(propan-2-yl)-[1,2,4]triazolo[4,3-a]pyridin-6-yl]phenyl}[trans-4-{[4-(pentafluoro-λ^6-sulfanyl)phenyl]Amino}cyclohexyl](imino)-λ^6-sulfanone] |
| 158 | 79.4 | 5.01 | Cc1nc2cc(-c3ccc(S(=O)(=O)[C@H]4CC[C@H](Nc5ccc(S(F)(F)(F)(F)F)cc5)CC4)cc3)ccn2n1 [Example 41, 4-(pentafluoro-λ^6-sulfanyl)-N-[trans-4-(4-{2-methyl-[1,2,4]triazolo[1,5-a]pyridin-7-yl}benzenesulfonyl)cyclohexyl]aniline] |
| 126 | 100 | 25.1 | CC(C)c1nnc2ccc(-c3ccc(S(=O)(=O)[C@H]4CC[C@H](Nc5ccc(S(F)(F)(F)(F)F)cc5)CC4)cc3)nn12 [Example 50, 4-(pentafluoro-λ^6-sulfanyl)-N-[trans-4-{4-[3-(propan-2-yl)-[1,2,4]triazolo[4,3-b]pyridazin-6-yl]benzenesulfonyl}cyclohexyl]aniline] |
| 63.1 | 7.94 | 2 | CC(C)c1nnc2cnc(-c3ccc(S(=O)(=O)[C@H]4CC[C@H](Nc5ccc(S(F)(F)(F)(F)F)cc5)CC4)cc3)cn12 [Example 51, 4-(pentafluoro-λ^6-sulfanyl)-N-[trans-4-{4-[3-(propan-2-yl)-[1,2,4]triazolo[4,3-a]pyrazin-6-yl]benzenesulfonyl}cyclohexyl]aniline] |
| 100 | 126 | 25.1 | N#Cc1c[nH]c2ccc(-c3ccc(S(=N)(=O)[C@H]4CC[C@H](Nc5ccc(S(F)(F)(F)(F)F)cc5)CC4)cc3)cc12 (stereo partly drawn) [Example 85, 5-(4-{[trans-4-{[4-(pentafluoro-λ^6-sulfanyl)phenyl]Amino}cyclohexyl]sulfonimidoyl}phenyl)-1H-indole-3-carbonitrile] |
| 126 | – | 7.94 | O=c1[nH]ccn2cc(-c3ccc(S(=O)(=O)[C@H]4CC[C@H](Nc5ccc(S(F)(F)(F)(F)F)cc5)CC4)cc3)cc12 [Example 154, 7-(4-{[trans-4-{[4-(pentafluoro-λ^6-sulfanyl)phenyl]amino}cyclohexyl]sulfonyl}phenyl)-1H,2H-pyrrolo[1,2-a]pyrazin-1-one] |
| 50.1 | – | 3.98 | N#Cc1cc(-c2ccc(S(=O)(=O)[C@H]3CC[C@H](Nc4ccc(S(F)(F)(F)(F)F)cc4)CC3)cc2)cn2ccnc12 [Example 160, 6-(4-{[trans-4-{[4-(pentafluoro-λ^6-sulfanyl)phenyl]amino}cyclohexyl]sulfonyl}phenyl)imidazo[1,2-a]pyridine-8-carbonitrile] |
| 79.4 | – | 7.94 | O=S(=O)(c1ccc(-c2ccc3nnc([C@@H]4CCCN4)n3c2)cc1)[C@H]1CC[C@H](Nc2ccc(S(F)(F)(F)(F)F)cc2)CC1 [Example 161, 4-(pentafluoro-λ^6-sulfanyl)-N-[trans-4-(4-{3-[(2S)-pyrrolidin-2-yl]-[1,2,4]triazolo[4,3-a]pyridin-6-yl}benzenesulfonyl)cyclohexyl]aniline] |
| 251 | – | 100 | O=S(=O)(c1ccc(-c2ccc3nnc(C4CNC4)n3c2)cc1)[C@H]1CC[C@H](Nc2ccc(S(F)(F)(F)(F)F)cc2)CC1 [Example 168, 4-(pentafluoro-λ^6-sulfanyl)-N-[trans-4-{4-[3-(azetidin-3-yl)-[1,2,4]triazolo[4,3-a]pyridin-6-yl]benzenesulfonyl}cyclohexyl]aniline] |

Continued, compound first:

| SMILES | IC50 (human CCR6 [1]) [nM] | IC50 (human CCR6 [2]) [nM] | IC50 (Human CD4+ T cells) [nM] |
| --- | --- | --- | --- |
| Cc1[nH]nc2ccc(-c3ccc(S(=O)(=O)[C@H]4CC[C@H](Nc5ccc(S(F)(F)(F)(F)F)cc5)CC4)cc3)cc12 [Example 6, 4-(pentafluoro-λ^6-sulfanyl)-N-[trans-4-[4-(3-methyl-2H-indazol-5-yl)benzenesulfonyl]cyclohexyl]aniline] | 39.8 | 25.1 | 0.631 |
| NC(=O)c1cc(-c2ccc(S(=O)(=O)[C@H]3CC[C@H](Nc4ccc(S(F)(F)(F)(F)F)cc4)CC3)cc2)ccn1 [Example 10, 4-(4-{[trans-4-{[4-(pentafluoro-λ^6-sulfanyl)phenyl]Amino}cyclohexyl]sulfonyl}phenyl)pyridine-2-carboxamide] | 79.4 | 5.01 | 2 |
| Cc1nnc2ccc(-c3ccc(S(=O)(=O)[C@H]4CC[C@H](Nc5ccc(S(F)(F)(F)(F)F)cc5)CC4)cc3)cn12 [Example 11, 4-(pentafluoro-λ^6-sulfanyl)-N-[trans-4-(4-{3-methyl-[1,2,4]triazolo[4,3-a]pyridin-6-yl}benzenesulfonyl)cyclohexyl]aniline] | 100 | 25.1 | 3.98 |
| O=S(=O)(c1ccc(-c2ccc3nccn3c2)cc1)[C@H]1CC[C@@H](Nc2ccc(S(F)(F)(F)(F)F)cc2)CC1 [Example 18, 4-(pentafluoro-λ^6-sulfanyl)-N-[cis-4-(4-{imidazo[1,2-a]pyridin-6-yl}benzenesulfonyl)cyclohexyl]aniline] | 158 | 200 | 6.31 |
| CN(C)C(=O)c1ccc(-c2ccc(S(=O)(=O)[C@H]3CC[C@H](Nc4ccc(S(F)(F)(F)(F)F)cc4)CC3)cc2)cn1 [Example 20, N,N-dimethyl-5-(4-{[trans-4-{[4-(pentafluoro-λ^6-sulfanyl)phenyl]Amino}cyclohexyl]sulfonyl}phenyl)pyridine-2-carboxamide] | 100 | 398 | 31.6 |
| NC(=O)c1nnc2ccc(-c3ccc(S(=O)(=O)N4CCC(Nc5ccc(S(F)(F)(F)(F)F)cc5)CC4)cc3)cn12 [Example 26, 6-{4-[(4-{[4-(pentafluoro-λ^6-sulfanyl)phenyl]Amino}piperidin-1-yl)sulfonyl]phenyl}-[1,2,4]triazolo[4,3-a]pyridine-3-carboxamide] | 50.1 | 100 | 15.8 |
| Cc1nnc2ccc(-c3ccc(S(=O)(=O)N4CCC(Nc5ccc(S(F)(F)(F)(F)F)cc5)CC4)cc3)cn12 [Example 27, 1-(4-{3-methyl-[1,2,4]triazolo[4,3-a]pyridin-6-yl}benzenesulfonyl)-N-[4-(pentafluoro-λ^6-sulfanyl)phenyl]piperidin-4-amine] | 63.1 | 63.1 | 5.01 |
| NC(=O)c1cnc2ccc(-c3ccc(S(=O)(=O)[C@H]4CC[C@H](Nc5ccc(S(F)(F)(F)(F)F)cc5)CC4)cc3)cn12 [Example 34, 6-(4-{[trans-4-{[4-(pentafluoro-λ^6-sulfanyl)phenyl]Amino}cyclohexyl]sulfonyl}phenyl)imidazo[1,2-a]pyridine-3-carboxamide] | 200 | 39.8 | 63.1 |
| CC(C)c1nnc2ccc(-c3ccc(S(=O)(=O)[C@H]4CC[C@H](Nc5ccc(S(F)(F)(F)(F)F)cc5)CC4)cc3)cn12 [Example 35, 4-(pentafluoro-λ^6-sulfanyl)-N-[trans-4-{4-[3-(propan-2-yl)-[1,2,4]triazolo[4,3-a]pyridin-6-yl]benzenesulfonyl}cyclohexyl]aniline] | 79.4 | 3.98 | 0.501 |
